SMILES strings stand for the structures. Marks after values point to notes of the source that are not given here.

Data set [1] in a line: logP by HPLC on reversed-phase columns (C 18), EEC Directive 79/831 Annex V.A8. The settings on record: for logP(HCOOH): pH 2.7; for logP(neutral): pH 7.8. It counts as physicochemical. How it is done:
Calibration is carried out using unbranched alkan-2-ones (having from 3 to 16 carbon atoms) with known log P values (the log P values are determined by the retention times using linear interpolation between two successive alkanones).

For the next data set, the system named is Meloidogyne incognita. Kind of data set: Meloidogyne incognita test (MELGIN). It is filed as in vivo. The conditions noted are these: application rate 20 ppm, after 14 days. As to the method:
Solvents: 80.0 parts by weight of acetone
Containers are filled with sand, solution of active compound, Meloidogyne incognita egg/larvae suspension and lettuce seeds. The lettuce seeds germinate and the plants develop. On the roots, galls are formed.
After 14 days, the nematicidal efficacy in % is determined by the formation of galls. 100% means that no galls have been found; 0% means that the number of galls on the treated plants corresponds to the untreated control.

The test system of data set [2] is greenhouse red spider mite (Tetranychus urticae). The experiment in a line: Tetranychus test, OP-resistant (TETRUR spray treatment). It counts as in vivo. The conditions noted are these: application rate 500 g/ha, after 6 days. As to the method: (§1) After 6 days, the effect in % is determined.
The test system is the same in data set [3]. Kind of data set: Tetranychus urticae spray test, OP-resistant (TETRUR), bean leaf disks. It is filed as in vivo. The settings on record: application rate 500 g/ha, after 6 days. How it is done:
as §1

The subject of data set [4] is L1 larvae of the Australian sheep blowfly (Lucilia cuprina). The experiment in a line: Lucilia cuprina test (LUCICU). It counts as in vivo. The settings on record: application rate 100 ppm, after 2 days. How it is done:
(§2) Solvent: dimethyl sulfoxide
About 20 L1 larvae of the Australian sheep blowfly (Lucilia cuprina) are transferred into a test vessel containing minced horsemeat and the active compound preparation of the desired concentration.
After 2 days, the kill in % is determined.

In data set [5] the test system is cattle ticks (Boophilus microplus). Kind of data set: Boophilus microplus injection test (BOOPMI Inj). It is filed as in vivo. The conditions noted are these: application rate 20 μg/animal, injection, after 7 days.
The test system of the next data set is Boophilus microplus. Kind of data set: Boophilus microplus test (BOOPMI injection). It is filed as in vivo. More on the design: dose or concentration left out as unconfirmed. The settings on record: after 7 days. As to the method:
as §2
The solution of active compound is injected into the abdomen (Boophilus microplus), and the animals are transferred into dishes and kept in a climatized room. The activity is assessed by laying of fertile eggs.
100% means that none of the ticks has laid any fertile eggs.

For the next data set, the system named is Lucilia cuprina larvae. Kind of data set: Lucilia cuprina (48 h). It counts as in vivo. The conditions noted are these: application rate 100 ppm, after 48 hours. How it is done:
as §2
10 mg of active compound are dissolved in 0.5 ml of dimethyl sulfoxide. To prepare a suitable formulation, the active compound solution is diluted with water to the concentration desired in each case. About 20 Lucilia cuprina larvae are introduced into a test tube which contains about 1 cm^3 of horse meat and 0.5 ml of the preparation of active compound to be tested. After 48 hours, the efficacy of the active compound preparation is determined as % larvae mortality.

Data set [6] deals with nematode larvae (Cooperia curticei). The experiment in a line: Cooperia curticei test (COOPCU). It is filed as in vivo. The settings on record: application rate 100 ppm, after 5 days. As to the method:
as §2
Vessels containing the active compound preparation of the desired concentration are populated with about 40 nematode larvae (Cooperia curticei).
After 5 days, the kill in % is determined.

Data set [7] has as its system larvae of the mustard beetle (Phaedon cochleariae). The experiment in a line: Phaedon test (PHAECO spray treatment). The conditions noted are these: application rate 500 g/ha, after 7 days.
For data set [8] the test system is unchanged. The experiment in a line: Phaedon cochleariae spray test (PHAECO). The settings on record: for effect (beetle larvae killed): application rate 500 g/ha, after 7 days.
The test system of data set [9] is greenhouse red spider mite (Tetranychus urticae). The experiment in a line: Tetranychus urticae spray test, OP-resistant (TETRUR), bean plants. The conditions noted are these: after 7 days. It is filed as in vivo. How it is done: Solvents: 7 parts by weight of dimethylformamide
Emulsifier: 2 part by weight of alkylaryl polyglycol ether
If the addition of ammonium salts or/and penetrants is required, these are in each case added in a concentration of 1000 ppm to the solution of the preparation.
Bean plants (Phaseolus vulgaris) which are heavily infested by all stages of the greenhouse red spider mite (Tetranychus urticae) are treated by spraying with the active compound preparation of the desired concentration.

In data set [10] the test system is green peach aphid (Myzus persicae). Kind of data set: Myzus persicae spray test (MYZUPE). It counts as in vivo. The settings on record: application rate 500 g/ha, after 6 days. How it is done:
as §1

On to `Cc1cc(C)c(SCC(F)(F)F)cc1N=C(N)C(F)(F)F` [Ia-07], for which, in data set [1], the “logP(HCOOH)” value worked out at 3.36 and the “logP(neutral)” value is listed as 3.4. Further, the “nematicidal efficacy (formation of galls)” value in the data set with Meloidogyne incognita is recorded as 90%. Also, the “efficacy (spider mites killed)” value in [2] is recorded as 100%. Moreover, the “efficacy (spider mites killed)” value in data set [3] came out at 100%.
`Cc1cc(F)c(N=C(N)C(F)(F)F)cc1SCC(F)(F)F` [Ia-21]: in data set [1], the “logP(neutral)” value is 3.12^[b]. In data set [4], the “efficacy (kill of larvae)” value was 100%. The “efficacy (laying of fertile eggs)” value (in [5]; in the data set on Boophilus microplus) was 100% each time. Further, the “effect (% larvae mortality)” value with Lucilia cuprina larvae is listed as 100%. Moreover, in data set [3], the “efficacy (spider mites killed)” value worked out at 100%.
`CCN/C(=N\c1cc(SCC(F)(F)F)c(Cl)cc1Cl)c1cccnc1` [Ia-220]: the “efficacy (kill of larvae)” value in data set [6] is reported as 100%. The pest or weed control at 500 g/ha in data set [3] (Tetranychus urticae, foliar, 144 h, read-out: efficacy (spider mites killed)) came out at 90%.
As for `CCNC(=Nc1cc([S+]([O-])CC(F)(F)F)c(C)cc1F)C(F)(F)F` (centres unmarked) [Ib-02], the “efficacy (kill of larvae)” value in data set [4] amounted to 80%. In addition, the “nematicidal efficacy (formation of galls)” value in the data set with Meloidogyne incognita turned out to be 100%. Further, the “efficacy (beetle larvae killed)” value in [7] was 100%. Moreover, in data set [5], the “efficacy (laying of fertile eggs)” value was determined as 100%. Also, the “efficacy (spider mites killed)” value in [2] and in data set [3] was 100% in each case. Besides, in [8], the “effect (beetle larvae killed)” value is reported as 100%.
For `Cc1cc(F)c(/N=C(/N)C(F)(F)F)cc1[S+]([O-])CC(F)(F)F` (centres unmarked) [Ib-11], in [1], the “logP(HCOOH)” value is reported as 2.77. In data set [1], the “logP(neutral)” value came to 2.71. Moreover, in [4], the “efficacy (kill of larvae)” value is recorded as 100%. Moreover, the “efficacy (beetle larvae killed)” value in data set [7] is recorded as 100%. For the same compound, the “efficacy (laying of fertile eggs)” value (in data set [5]; with Boophilus microplus) was 100% throughout. Moreover, the “effect (beetle larvae killed)” value in [8] came out at 100%. The “effect (% larvae mortality)” value with Lucilia cuprina larvae came to 100%. For the same compound, in data set [3], the “efficacy (spider mites killed)” value is on record as 100%.
On to `N/C(=N/c1cc([S@@+]([O-])CC(F)(F)F)c(Cl)cc1Cl)C(F)(F)F` [Ib-44], for which, in data set [9] (application rate 100 ppm), the “efficacy (spider mites killed)” value was 90%. In data set [10], the “effect (aphids killed)” value is 100%. The pest or weed control at 0.02 mg in data set [5] (Rhipicephalus microplus, 168 h, read-out: efficacy (laying of fertile eggs)) turned out to be 90%. In addition, in [8] (Phaedon cochleariae, 168 h, read-out: effect (beetle larvae killed)), the pest or weed control at 500 g/ha was 100%.
In the case of `Cc1cc(C)c([S+]([O-])CC(F)(F)F)cc1/N=C1\SCC(=O)N1C` (centres unmarked) [Ib-159], the “efficacy (spider mites killed)” value in data set [9] (application rate 20 ppm) is on record as 80%.
For the compound `Cc1cc(F)c(/N=C2\SCC(=O)N2CC(F)(F)F)cc1[S@+]([O-])CC(F)(F)F` [Ib-168], the “efficacy (spider mites killed)” value in data set [9] (application rate 20 ppm) was found to be 100%.

These data come from patent US10051861B2, “N-arylamidine-substituted trifluoroethyl sulfide derivatives as acaricides and insecticides” (BAYER CROPSCIENCE AG, priority 2011, dated 2018).
